{
  "source": "patent US20140336220A1",
  "about": "“COMPOSITION FOR PREVENTING OR TREATING OBESITY COMPRISING REBAMIPIDE” (The Catholic University of Korea Industry-Academic …, priority 2011, published 2014)",
  "key": {"[1]": {"tested_on": "animal models induced with obesity", "assay": "Weight reduction effect in mice induced with obesity using a high fat food", "format": "in vivo, C57BL/6(H-2kb) mouse", "conditions": "300 mg/kg oral", "method": "The inventors of the present disclosure prepared animal models induced with obesity in order to check whether rebamipide has an effect of treating obesity. As a test animal, a C57BL/6(H-2kb) mouse was used. In order to prepare animal models induced with obesity, a high fat food was fed to the animal models induced with obesity. After rebamipide was orally administered with a dose of 300 mg/kg to the animal models induced with obesity, weights of a rebamipide-treated group and a control group induced with obesity were measured."}, "[2]": {"tested_on": "animal models induced with obesity", "assay": "Adipocyte in liver frozen sections, haematoxylin and eosin and Oil red O staining", "format": "in vivo, mouse", "conditions": "oral administration, 51 days, H&E and Oil red O staining, vs control induced with obesity, FIG. 2", "method": "In order to check fat inhibition effect of rebamipide, after supply of a high fat diet for 51 days was ended, a food was stopped at 12 hours before an experiment period was ended. Then, a frozen section (7 μm) obtained from a liver was haematoxylin and eosin staining and Oil red O staining. As a result of staining including the haematoxylin and eosin staining and Oil red O staining, it could be seen that in the liver obtained after oral administration with rebamipide, adipocyte were reduced as compared with a control induced with obesity (refer to FIG. 2)."}, "[3]": {"tested_on": "animal models induced with obesity", "assay": "Serum glucose, triglyceride and cholesterol by autoanalyzer", "format": "in vivo, mouse", "conditions": "oral administration, obese mice, FIG. 3", "method": "Further, an experimental animal group was etherized and blood was collected from the heart. The collected blood was put into a centrifuge tube and centrifuged at 3000 rpm for 20 minutes, so that the serum was separated and kept in a freezer until it was analyzed at −70° C. Contents of glucose, triglyceride, total cholesterol, HDL-cholesterol, and LDL-cholesterol in the serum were analyzed using an autoanalyzer (Kuadro, Italy)."}, "[4]": {"tested_on": "animal models induced with obesity", "assay": "Obesity improvement depending on dose: weight and liver", "format": "in vivo, mouse", "method": "In order to check an obesity improvement effect depending on a treatment concentration of rebamipide, the inventors of the present disclosure orally administered rebamipide with a dose of 30 mg/kg and 100 mg/kg to an animal models induced with obesity prepared in Example 1 and then measured weights of the rebamipide treatment group and a mouse induced with obesity as a control group. For in vitro test, on the 63rd day after treatment with rebamipide, an experimental animal was killed and the liver of the mouse was extracted, and then, a size of the mouse and a weight of the liver were measured with the naked eye."}, "pre-adipocyte": {"tested_on": "pre-adipocyte", "assay": "Adipocyte differentiation of pre-adipocyte, Oil red O analysis", "format": "cell-based", "conditions": "vs untreated cells, dependent on dose of rebamipide, FIG. 8", "method": "In order to check whether or not rebamipide has a […] inhibition effect, the inventors of the present disclosure divided pre-adipocyte in an amount of 1.2×10^4/2 ml into a 24-well plate, and when the cells were completely packed, the cells were cultured again for 48 hours. After 48 hours, differentiation of adipocyte was induced with replacement of a culture medium added with dexamethasone, insulin, and isobutylmethylxanthine. In this case, rebamipide was also used to stimulate while being dissolved in DMSO. 3 days after differentiation, differentiation of adipocyte was maintained with replacement with a culture medium added with dexamethasone and insulin once per two days. After 4 days, Oil red O analysis was carried out."}, "adipocyte": {"tested_on": "adipocyte", "assay": "Real time PCR of adipogenic and brown fat genes in differentiated adipocyte", "format": "cell-based", "conditions": "FIG. 9", "method": "The inventors of the present disclosure differentiated adipocyte by the method of Example <7-1>. 3 days after differentiation, differentiation of adipocyte was maintained with replacement with a culture medium added with dexamethasone and insulin once per two days, and after 4 days, the cells were treated with trizol and RNA was separated therefrom and cDNA was synthesized. Then, by real time PCR, mRNA expression of c/EBP, adiponectin, Leptin aP2, GLTU, and Cytochrome C1 as proadipogenic transcription factors was observed."}, "[5]": {"tested_on": "animal group induced with obesity", "assay": "Brown fat to white fat ratio, interscapular region", "format": "in vivo, mouse", "conditions": "30 mg/kg and 100 mg/kg, vs animal group induced with obesity, FIG. 10", "method": "Thus, in order to check an effect of treatment with rebamipide on white fat and brown fat in vivo, the inventors of the present disclosure separated fat from an interscapular region of an animal group induced with obesity and a group treated with rebamipide with a dose of 30 mg/kg and 100 mg/kg and divided into white fat and brown fat. A weight of each of the white fat and the brown fat was measured, and an amount of the brown fat with respect to the white fat was calculated."}, "[6]": {"tested_on": "animal model with obesity induced arthritis", "assay": "Arthritis index in obesity induced arthritis (collagen induced arthritis) model", "format": "in vivo, C57BL/6 mouse", "conditions": "300 mg/kg oral, 10 times, three times per week, up to 61 days, FIG. 11"}, "[7]": {"tested_on": "animal group with obesity induced arthritis", "assay": "Type-II-collagen-specific IgG and IgG2a in serum by ELISA", "format": "in vivo, mouse", "conditions": "serum 1:100, vs obesity induced arthritis group, FIG. 13", "method": "Blood was collected from the heart of a mouse in each group and centrifuged at 8000 rpm for 8 minutes at 20° C., so that the mouse serum of each group was obtained from a supernatant of the blood. The serum was diluted at a ratio of 1:100, and type-II-collagen-specific IgG and IgG2a were measured by an ELISA method."}, "[8]": {"tested_on": "animal model with obesity induced arthritis", "assay": "Immunohistochemistry staining of inflammatory cytokines in joint", "format": "in vivo, mouse", "conditions": "immunochemical staining, vs obesity induced arthritis group, FIG. 14", "method": "In order to check whether or not rebamipide of the present disclosure specifically can inhibit inflammatory cytokines such as IL-17, IL-6, IL-1b, TNF-a, and Nitrothyrosine in the joint of an animal model with obesity induced arthritis, the joint of a mouse was treated by the same method as illustrated in Example <9-2>. Then, inflammatory cytokines were stained by with an immunochemical staining method and analyzed with an optical microscope."}, "[9]": {"conditions": "well treated with 20 μm of rebamipide"}},
  "note": "“Also recorded” adds a separate entry of the source.",
  "data": [
    {"smiles": "O=C(NC(Cc1cc(=O)[nH]c2ccccc12)C(=O)O)c1ccc(Cl)cc1", "note": "(centres unmarked) [rebamipide, 2-(4-chlorobenzoylamino)-3-[2(1H)-quinolinon-4-yl]propionic acid]", "values": [
      {"measurement": "liver appearance with the naked eye", "setting": "[1]; killed on the 51st day, FIG. 1B", "value": "bright red like a liver of a normal mouse"},
      {"measurement": "weight", "setting": "[1]; obese mice on high fat food, vs control group, FIG. 1A", "value": "statistically significantly decreased"},
      {"measurement": "adipocyte in liver", "setting": "[2]", "value": "remarkably reduced"},
      {"measurement": "HDL-cholesterol in serum", "setting": "[3]", "value": "slightly increased; also recorded: not statistically significant but increased"},
      {"measurement": "LDL-cholesterol in serum", "setting": "[3]", "value": "statistically significantly reduced; also recorded: statistically significantly decreased"},
      {"measurement": "glucose in serum", "setting": "[3]", "value": "statistically significantly reduced; also recorded: statistically significantly decreased"},
      {"measurement": "total cholesterol in serum", "setting": "[3]", "value": "statistically significantly reduced; also recorded: statistically significantly decreased"},
      {"measurement": "triglyceride in serum", "setting": "[3]", "value": "statistically significantly reduced; also recorded: statistically significantly decreased"},
      {"measurement": "weight", "setting": "[4]; 30 mg/kg and 100 mg/kg oral, vs control group, FIG. 6A", "value": "statistically reduced"},
      {"measurement": "weight reduction effect", "setting": "[4]; 30 mg/kg oral, FIG. 6A", "value": "a weight reduction effect was illustrated"},
      {"measurement": "liver appearance", "setting": "[4]; 100 mg/kg oral, 63rd day, FIG. 6B", "value": "bright red similarly to a liver of a normal control mouse"},
      {"measurement": "weight reduction effect", "setting": "[4]; 100 mg/kg oral, FIG. 6A", "value": "highest"},
      {"measurement": "differentiation of adipocyte (Oil red O)", "setting": "pre-adipocyte", "value": "differentiation of adipocyte did not occur"},
      {"measurement": "mRNA expression of Cytochrome C1", "setting": "adipocyte; differentiated adipocyte", "value": "reduced depending on a concentration of rebamipide"},
      {"measurement": "mRNA expression of GLTU", "setting": "adipocyte; differentiated adipocyte", "value": "reduced depending on a concentration of rebamipide"},
      {"measurement": "mRNA expression of Leptin", "setting": "adipocyte; differentiated adipocyte", "value": "reduced depending on a concentration of rebamipide"},
      {"measurement": "mRNA expression of aP2", "setting": "adipocyte; differentiated adipocyte", "value": "reduced depending on a concentration of rebamipide"},
      {"measurement": "mRNA expression of adiponectin", "setting": "adipocyte; differentiated adipocyte", "value": "reduced depending on a concentration of rebamipide"},
      {"measurement": "mRNA expression of c/EBP", "setting": "adipocyte; differentiated adipocyte", "value": "reduced depending on a concentration of rebamipide"},
      {"measurement": "level of brown fat gene Cidea", "setting": "adipocyte; [9]", "value": "increased"},
      {"measurement": "level of brown fat gene Cox7a1", "setting": "adipocyte; [9]", "value": "increased"},
      {"measurement": "level of brown fat gene Elov13", "setting": "adipocyte; [9]", "value": "increased"},
      {"measurement": "level of brown fat gene Fgf21", "setting": "adipocyte; [9]", "value": "increased"},
      {"measurement": "ratio of the brown fat to the white fat", "setting": "[5]", "value": "increased"},
      {"measurement": "arthritis index", "setting": "[6]", "value": "decreased"},
      {"measurement": "type-II-collagen-specific IgG2a in serum", "setting": "[7]", "value": "significantly decreased"},
      {"measurement": "type-II-collagen-specific IgG in serum", "setting": "[7]", "value": "significantly decreased"},
      {"measurement": "infiltration of IL-1b in joint", "setting": "[8]", "value": "inhibited"},
      {"measurement": "infiltration of IL-6 in joint", "setting": "[8]", "value": "inhibited"},
      {"measurement": "infiltration of IL-17 in joint", "setting": "[8]", "value": "inhibited"},
      {"measurement": "infiltration of Nitrothyrosine in joint", "setting": "[8]", "value": "inhibited"},
      {"measurement": "infiltration of TNF-a in joint", "setting": "[8]", "value": "inhibited"}
    ]}
  ]
}
